Experiments:
KAT6A = molecular target: T1, KAT6A (Homo sapiens, UniProt Q92794); assay: KAT6A enzyme inhibition assay (SAMDI mass spectrometry); format: biochemical; conditions: His-TEV-KAT6A 501-784 enzyme construct
T1 construct: His-TEV tag (N, cleaved yes); made in house

KAT5 = molecular target: T2, KAT5 (Homo sapiens, UniProt Q92993); assay: KAT5 enzyme inhibition assay (SAMDI mass spectrometry); format: biochemical; conditions: His-TEV-FL KAT5-Flag enzyme construct
T2 construct: His-TEV tag (N, cleaved yes); made in house
T2 sequence (Q92993 with tags, fused parts or gaps): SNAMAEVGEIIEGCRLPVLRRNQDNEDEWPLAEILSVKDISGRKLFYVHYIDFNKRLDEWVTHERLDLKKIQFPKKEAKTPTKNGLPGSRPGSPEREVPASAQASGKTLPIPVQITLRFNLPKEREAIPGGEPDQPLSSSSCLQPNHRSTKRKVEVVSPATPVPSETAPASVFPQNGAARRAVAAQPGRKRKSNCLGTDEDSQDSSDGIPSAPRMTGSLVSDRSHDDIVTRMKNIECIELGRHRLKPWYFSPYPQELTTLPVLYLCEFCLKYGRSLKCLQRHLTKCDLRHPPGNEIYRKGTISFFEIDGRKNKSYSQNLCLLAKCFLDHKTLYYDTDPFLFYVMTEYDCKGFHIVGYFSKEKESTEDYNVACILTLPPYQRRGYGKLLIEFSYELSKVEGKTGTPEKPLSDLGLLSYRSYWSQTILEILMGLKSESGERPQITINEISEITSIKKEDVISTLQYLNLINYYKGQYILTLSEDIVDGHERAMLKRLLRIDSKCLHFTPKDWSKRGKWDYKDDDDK

T1 sequence (Q92794 with tags, fused parts or gaps): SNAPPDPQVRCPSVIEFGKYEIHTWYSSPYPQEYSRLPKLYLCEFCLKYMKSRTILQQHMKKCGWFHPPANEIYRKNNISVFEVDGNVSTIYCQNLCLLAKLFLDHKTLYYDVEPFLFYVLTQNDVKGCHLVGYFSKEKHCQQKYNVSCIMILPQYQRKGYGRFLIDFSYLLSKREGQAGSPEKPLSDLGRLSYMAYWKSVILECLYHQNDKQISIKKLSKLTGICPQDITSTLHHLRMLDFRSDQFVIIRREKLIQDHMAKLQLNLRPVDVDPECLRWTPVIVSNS

Row | IC50 (KAT6A) | IC50 (KAT5) | SMILES
1 | ≤ 10 µM | 10 to 50 µM | O=C(NNS(=O)(=O)c1ccccc1)c1cccc(Cl)c1F [Compound I-160]
2 | ≤ 10 µM | > 100 µM | Cc1cc(-c2ccccc2)cc(C(=O)NNS(=O)(=O)c2ccc(=O)[nH]c2)c1F [Compound I-162]
3 | 10 to 50 µM | > 100 µM | O=C(NNS(=O)(=O)c1ccccc1)c1ccccc1F [Compound I-165]
4 | 10 to 50 µM | 50 to 100 µM | O=C(NNS(=O)(=O)c1ccccc1)c1c(F)ccc(-c2cn[nH]c2)c1F [Compound I-167]
5 | > 100 µM | > 100 µM | Cc1cc(-c2ccccc2)cc(C(=O)NCc2cc[nH]n2)c1F [Compound I-173]
6 | ≤ 10 µM | ≤ 10 µM | Cc1cc(-c2ccccc2)cc(C(=O)NNS(=O)(=O)c2cccnc2)c1F [Compound I-175]
7 | > 100 µM | > 100 µM | Cc1cc(-c2ccccc2)cc(C(=O)NCC(O)c2ccccc2)c1F (centres unmarked) [Compound I-178]
8 | > 100 µM | > 100 µM | O=C(NNS(=O)(=O)c1ccccc1)c1cccc2ccccc12 [Compound I-180]
9 | ≤ 10 µM | 10 to 50 µM | Cc1cccc(C(=O)NNS(=O)(=O)c2ccccc2)c1F [Compound I-183]
10 | > 100 µM | > 100 µM | O=C(NS(=O)(=O)c1ccccc1)c1c[nH]c2ccccc12 [Compound I-185]
11 | 10 to 50 µM | 50 to 100 µM | COc1ccc(S(=O)(=O)NNC(=O)c2c(F)ccc(-c3ccccc3)c2C)cc1 [Compound I-186]
12 | ≤ 10 µM | ≤ 10 µM | Cc1cc(-c2ccccc2)cc(C(=O)NNS(=O)(=O)c2cccc(Cl)c2)c1F [Compound I-187]
13 | > 100 µM | > 100 µM | O=C(NNS(=O)(=O)c1ccccc1)c1ncccn1 [Compound I-189]
14 | 50 to 100 µM | > 100 µM | O=C(NNS(=O)(=O)c1ccccc1)c1ccc(F)cc1 [Compound I-193]
15 | > 100 µM | > 100 µM | O=C(NNS(=O)(=O)c1ccccc1)c1ccccn1 [Compound I-194]
16 | ≤ 10 µM | 10 to 50 µM | Cc1cc(-c2cccnc2)cc(C(=O)NNS(=O)(=O)c2ccccc2)c1F [Compound I-195]
17 | > 100 µM | > 100 µM | O=C(NNS(=O)(=O)c1ccccc1)c1cnn(-c2ccccc2)c1 [Compound I-197]
18 | > 100 µM | > 100 µM | Cc1cc(-c2ccccc2)cc(C(=O)N2CC(S(=O)(=O)c3ccccc3)C2)c1F [Compound I-199]
19 | 50 to 100 µM | > 100 µM | Cc1c(F)cc(-c2ccccc2)cc1C(=O)NNS(=O)(=O)c1ccccc1 [Compound I-205]
20 | ≤ 10 µM | ≤ 10 µM | Cc1cc(-c2ccccc2)cc(C(=O)NNS(=O)(=O)CC2CCN(C(=O)OC(C)(C)C)C2)c1F (centres unmarked) [Compound I-206]
21 | ≤ 10 µM | ≤ 10 µM | Cc1cc(-c2ccccc2)cc(C(=O)NNS(=O)(=O)CC2CN(C(=O)OC(C)(C)C)C2)c1F [Compound I-207]
22 | 10 to 50 µM | 10 to 50 µM | COCCN1CC(CS(=O)(=O)NNC(=O)c2cc(-c3ccccc3)cc(C)c2F)C1 [Compound I-208]
23 | ≤ 10 µM | ≤ 10 µM | Cc1cc(-c2ccccc2)cc(C(=O)NNS(=O)(=O)c2ccc(O)cc2)c1F [Compound I-211]
24 | 50 to 100 µM | > 100 µM | O=C(NS(=O)(=O)Nc1ccccc1)c1c(F)ccc(-c2ccccc2)c1F [Compound I-212]

The remaining lines, values behind:

Row | SMILES | IC50 (KAT6A) | IC50 (KAT5)
25 | O=C(NNS(=O)(=O)c1ccccc1)c1cc(Cl)ccc1F [Compound I-153] | ≤ 10 µM | 10 to 50 µM
26 | O=C(NNS(=O)(=O)c1cccc(F)c1)c1cc(-c2ccccc2)ccc1F [Compound I-154] | ≤ 10 µM | 10 to 50 µM
27 | Cc1cccc(S(=O)(=O)NNC(=O)c2c(F)ccc(-c3ccccc3)c2F)c1 [Compound I-155] | ≤ 10 µM | 10 to 50 µM
28 | O=C(NNS(=O)(=O)c1ccc(Cl)cc1)c1c(F)ccc(-c2ccccc2)c1F [Compound I-156] | ≤ 10 µM | 10 to 50 µM
29 | O=C(NNS(=O)(=O)c1ccccc1)c1c[nH]c2ccccc12 [Compound I-158] | > 100 µM | > 100 µM
30 | O=C(NNS(=O)(=O)c1ccccc1)c1ccccc1 [Compound I-159] | 50 to 100 µM | > 100 µM
31 | O=C(NNS(=O)(=O)c1cccc(Cl)c1)c1c(F)ccc(-c2ccccc2)c1F [Compound I-161] | ≤ 10 µM | 10 to 50 µM
32 | O=C(NNS(=O)(=O)c1ccc2ccccc2c1)c1c(F)ccc(-c2ccccc2)c1F [Compound I-164] | ≤ 10 µM | ≤ 10 µM
33 | O=C(NNS(=O)(=O)c1ccccc1)c1c(F)cccc1F [Compound I-166] | 10 to 50 µM | > 100 µM
34 | Cc1cc(-c2ccccc2)cc(C(=O)NS(=O)(=O)c2ccccc2)c1F [Compound I-168] | 50 to 100 µM | 50 to 100 µM
35 | O=C(NNCc1ccccc1)c1ccccc1F [Compound I-169] | > 100 µM | > 100 µM
36 | O=C(NNS(=O)(=O)c1cccc(Cl)c1)c1c(F)ccc(-c2ncc[nH]2)c1F [Compound I-170] | 50 to 100 µM | > 100 µM
37 | Cc1c(-c2ccccc2)ccc(F)c1C(=O)NNC(=O)c1ccccc1 [Compound I-171] | > 100 µM | > 100 µM
38 | Cn1ccnc1-c1ccc(F)c(C(=O)NNS(=O)(=O)c2ccccc2)c1F [Compound I-172] | 10 to 50 µM | > 100 µM
39 | COc1ccccc1S(=O)(=O)NNC(=O)c1ccccc1F [Compound I-174] | > 100 µM | > 100 µM
40 | COc1ccccc1S(=O)(=O)NNC(=O)c1cc(-c2ccccc2)cc(C)c1F [Compound I-176] | ≤ 10 µM | ≤ 10 µM
41 | COc1cccc(S(=O)(=O)NNC(=O)c2ccccc2F)c1 [Compound I-177] | 10 to 50 µM | > 100 µM
42 | Cc1cc(-c2ccccc2)cc(C(=O)NNS(=O)(=O)C2CC3CCC(C2)N3)c1F (centres unmarked) [Compound I-184] | > 100 µM | > 100 µM
43 | Cc1cccc(S(=O)(=O)NNC(=O)c2cc(-c3ccccc3)cc(C)c2F)c1 [Compound I-188] | ≤ 10 µM | ≤ 10 µM
44 | O=C(NNS(=O)(=O)c1ccccc1)c1cccc(Cl)c1 [Compound I-190] | 10 to 50 µM | 50 to 100 µM
45 | COc1ccc(C(=O)NNS(=O)(=O)c2ccccc2)cc1 [Compound I-192] | > 100 µM | > 100 µM
46 | O=C(NNS(=O)(=O)c1ccccc1)c1n[nH]c2ccccc12 [Compound I-196] | 50 to 100 µM | > 100 µM
47 | O=C(NNS(=O)(=O)c1cccc(Cl)c1)c1c(F)ccc(Cl)c1F [Compound I-198] | ≤ 10 µM | 50 to 100 µM
48 | Cc1ccc(-c2ccccc2)c(C)c1C(=O)NNS(=O)(=O)c1ccccc1 [Compound I-200] | > 100 µM | > 100 µM
49 | Cc1cc(-c2ccncc2)cc(C(=O)NNS(=O)(=O)c2ccccc2)c1F [Compound I-202] | 10 to 50 µM | > 100 µM
50 | Cc1cccc(C(=O)NNS(=O)(=O)C2CNC2)c1F [Compound I-203] | > 100 µM | > 100 µM
51 | Cc1cc(-c2ccccc2)cc(C(=O)NNS(=O)(=O)c2ccccn2)c1F [Compound I-209] | ≤ 10 µM | ≤ 10 µM
52 | Cc1cc(-c2ccccc2)cc(C(=O)NNS(=O)(=O)c2cccc(OCc3ccccc3)c2)c1F [Compound I-210] | ≤ 10 µM | ≤ 10 µM

Source: patent US20220267260A1, “COMPOUNDS CONTAINING A SULFONIC GROUP AS KAT INHIBITORS” (Epizyme, Inc., priority 2016, published 2022)
